In brackets after ≈: the same amount, converted by molar mass.
Key:
[1] = Liver microsomal stability (HLM); format: in vitro ADME; settings: human, liver microsomes, human liver microsomes 0.5 mg/mL, 1 μM compound, NADPH
[2] = Solubility in FaSSIF (Fasted State Simulated Intestinal Fluid); format: physicochemical; settings: kinetic from dmso stock, FaSSIF pH 6.5, 25° C.
Outline: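 Apparent solubility measured in FaSSIF at pH 6.5 from a 10 mM DMSO stock, shaken at 25° C, 1100 RPM for 2 h and then filtered. Filtrate quantified by LC/MS/MS against a 3 μM standard with internal standard, corrected by dilution factor.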

[3] = tested on: MDA-MB-436 cells; assay: CTG Protocol (MDA-MB-436 GI50), antiproliferative activity; format: cell-based, human; settings: Homo sapiens, 168 h; MDA-MB-436 cells (BRCA1 mutation), 7-day incubation, CellTiter-Glo
Outline: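 BRCA1-mutant MDA-MB-436 cells were seeded at 1000 cells/well in DMEM, left overnight, then exposed to a 9-point, 3-fold compound series for 7 days at 37 °C, 5% CO2. Viability was read by CellTiter-Glo luminescence. % inhibition was plotted against concentration to derive GI50.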

SMILES	microsomal CLint at 1 μM [1]	solubility at 2 h [2]	GI50 [3]
COc1ncnc(C2CC2)c1-c1ncc2cc(-c3cn(C)nn3)c(=O)n(Cc3ccc(-c4nc(C(F)(F)F)cn4C4CC4)cc3)c2n1 [Compound I-150]	< 10 µL/min/mg	10 to 100 µM (≈ 6.41 to 64.1 µg/mL)	10 to 100 nM
COc1ncnc(C2CC2)c1-c1ncc2cc(-c3cnn(C)n3)c(=O)n(Cc3ccc(-c4nc(C(F)(F)F)cn4C4CC4)cc3)c2n1 [Compound I-151]	< 10 µL/min/mg	10 to 100 µM (≈ 6.41 to 64.1 µg/mL)	10 to 100 nM
COc1ncnc(C2CC2)c1-c1ncc2cc(-c3ncnn3C)c(=O)n(Cc3ccc(-c4nc(C(F)(F)F)cn4C4CC4)cc3)c2n1 [Compound I-156]	< 10 µL/min/mg	≥ 100 µM	10 to 100 nM
COc1ncnc(C2CC2)c1-c1ncc2cc(-c3ncnn3C)c(=O)n(Cc3ccc(-c4nc(C(F)(F)F)cn4C(C)C)cc3)c2n1 [Compound I-168, 2-(4-Cyclopropyl-6-Methoxypyrimidin-5-Yl)-8-({4-[1-Isopropyl-4-(Trifluoromethyl)Imidazol-2-Yl]Phenyl}Methyl)-6-(2-Methyl-1,2,4-Triazol-3-Yl)Pyrido[2,3-d]Pyrimidin-7-One]	< 10 µL/min/mg	10 to 100 µM (≈ 6.43 to 64.3 µg/mL)	10 to 100 nM
COc1ncnc(C2CC2)c1-c1ncc2ccc(=O)n(Cc3ccc(-c4cccc(C(F)(F)F)n4)cc3)c2n1 [Compound I-36, 2-(4-cyclopropyl-6-methoxypyrimidin-5-yl)-8-({4-[6-(trifluoromethyl)pyridin-2-yl]phenyl}methyl)pyrido[2,3-d]pyrimidin-7-one]	10 to 50 µL/min/mg	< 10 µM	10 to 100 nM

Other lines, results leading:

microsomal CLint at 1 μM [1]	solubility at 2 h [2]	GI50 [3]	SMILES
< 10 µL/min/mg	≥ 100 µM	< 10 nM	COc1cc(Cn2c(=O)ccc3c(C)nc(-c4c(OC)ncnc4C4CC4)nc32)ccc1-c1nc(C(F)(F)F)cn1C1CC1 [Compound I-152, 8-({4-[1-cyclopropyl-4-(trifluoromethyl)imidazo]-2-yl]-3-methoxyphenylmethyl)-2-(4-cyclopropyl-6-methoxypyrimidin-5-yl)-4-methylpyrido[2,3-d]pyrimidin-7-one]
< 10 µL/min/mg	10 to 100 µM (≈ 6.55 to 65.5 µg/mL)	10 to 100 nM	COc1ncnc(C2CC2)c1-c1nc(C)c2cc(-c3ncnn3C)c(=O)n(Cc3ccc(-c4nc(C(F)(F)F)cn4C4CC4)cc3)c2n1 [Compound I-167, 8-({4-[1-Cyclopropyl-4-(Trifluoromethyl)Imidazol-2-Yl]Phenyl}Methyl)-2-(4-Cyclopropyl-6-Methoxypyrimidin-5-Yl)-4-Methyl-6-(2-Methyl-1,2,4-Triazol-3-Yl)Pyrido[2,3-d]Pyrimidin-7-One]
< 10 µL/min/mg	10 to 100 µM (≈ 6.55 to 65.5 µg/mL)	< 10 nM	COc1ncnc(C2CC2)c1-c1ncc2cc(-c3c(C)noc3C)c(=O)n(Cc3ccc(-c4nc(C(F)(F)F)cn4C4CC4)cc3)c2n1 [Compound I-155]
< 10 µL/min/mg	≥ 100 µM	10 to 100 nM	COc1ncnc(C2CC2)c1-c1ncc2cc(-c3ncn(C)n3)c(=O)n(Cc3ccc(-c4nc(C(F)(F)F)cn4C4CC4)cc3)c2n1 [Compound I-153, 8-({4-[1-cyclopropyl-4-(trifluoromethyl)imidazo]-2-yl]phenylmethyl)-2-(4-cyclopropyl-6-methoxypyrimidin-5-yl)-6-(1-methyl-1,2,4-triazol-3-yl)pyrido[2,3-d]pyrimidin-7-one]
< 10 µL/min/mg	< 10 µM	10 to 100 nM	COc1ncnc(C2CC2)c1-c1ncc2ccc(=O)n(Cc3ccc(-c4nc(C(F)(F)F)cn4C(C)C)cc3)c2c1F [Compound I-27, 7-(4-cyclopropyl-6-methoxypyrimidin-5-yl)-8-fluoro-1-({4-[1-isopropyl-4-(trifluoromethyl)imidazol-2-yl]phenyl}methyl)-1,6-naphthyridin-2-one]
< 10 µL/min/mg	≥ 100 µM	< 10 nM	COc1ncnc(C2CC2)c1-c1nc(C)c2cc(C3CCN(C)CC3)c(=O)n(Cc3ccc(-c4nc(C(F)(F)F)cn4C4CC4)cc3)c2n1 [Compound I-157, 8-({4-[1-Cyclopropyl-4-(Trifluoromethyl)Imidazol-2-Yl]Phenyl}Methyl)-2-(4-Cyclopropyl-6-Methoxypyrimidin-5-Yl)-4-Methyl-6-(1-Methylpiperidin-4-Yl)Pyrido[2,3-d]Pyrimidin-7-One]
< 10 µL/min/mg	≥ 100 µM	< 10 nM	COc1ncnc(C2CC2)c1-c1nc(C)c2cc(-c3cnn(C)c3)c(=O)n(Cc3ccc(-c4nc(C(F)(F)F)cn4C4CC4)cc3)c2n1 [Compound I-148, 8-({4-[1-Cyclopropyl-4-(Trifluoromethyl)Imidazol-2-Yl]Phenyl}Methyl)-2-(4-Cyclopropyl-6-Methoxypyrimidin-5-Yl)-4-Methyl-6-(1-Methylpyrazol-4-Yl)Pyrido[2,3-d]Pyrimidin-7-One]
< 10 µL/min/mg	10 to 100 µM (≈ 6.22 to 62.2 µg/mL)	< 10 nM	COc1cc(Cn2c(=O)ccc3c(C)nc(-c4c(OC)ncnc4C4CC4)nc32)cc(F)c1-c1nc(C(F)(F)F)cn1C1CC1 [Compound I-163]

Source: US20240092779A1, “USP1 INHIBITORS AND USES THEREOF” (Zentaur Therapeutics USA Inc., priority 2022, published 2024)
